Source: paper PMC11243693, “Synthesis and Biological Evaluation of New Compounds with Nitroimidazole Moiety” (Molecules, 2024)
Converted amounts (≈) assume the structure as drawn. Like-named read-outs stand apart in the source and are kept apart here.

Legend:
[1] = tested on: Bacillus subtilis ATCC 6633; assay: Broth microdilution, B. subtilis ATCC 6633; type: cell-based; conditions: Bs 6633; for MBC/MIC Ratio: <4 bactericidal, ≥4 bacteriostatic
Protocol: (§1) The antibacterial activity of the obtained thiosemicarbazides and hydrazide–hydrazones was determined by evaluating their ability to inhibit microbial growth in vitro using the broth microdilution method, according to the guidelines of the European Committee on Antimicrobial Susceptibility Testing (EUCAST). The method involved the preparation of microbial suspensions with a standardized density of 0.5 on the McFarland scale (equivalent to 1.5 × 10^8 colony-forming units/mL for bacteria and […] for fungi). A solution of the test substances was then prepared (initial concentration 1000 µg/mL, diluted in sterile Mueller-Hinton broth for bacteria or Mueller-Hinton with 2% glucose for fungi). The test was carried out in 96-well polystyrene flat-bottom plates (Medlab, Poland) with 100 µL of appropriate sterile microbiological medium in each well. The first wells were filled with 200 µL of the test substance, diluted to the initial concentration, and then double-decreasing dilutions were made under aseptic conditions using an automatic pipette. The final step was the addition of a 10-fold diluted microbial suspension of 2 µL. At the same time, the following controls were included: (a) medium control (100 µL of sterile medium without microorganisms added), (b) microbial viability control, (c) test substance control (dilutions without added micro-organisms), (d) positive control of the drug used in the clinic. The plates thus prepared were incubated for 18 ± 2 h at 35 ± 2 °C under conditions optimal for the growth of the test microorganisms. After incubation, the spectrophotometric absorbance at 570 nm in each well of the plate was read. The aim of this part of the study was to determine two parameters: the minimum inhibitory concentration (MIC) and the minimum bactericidal or fungicidal concentration (MBC/MFC) of the test compound. […] The MBC value was determined by adding 5 µL of the contents of each well of the plate to solid sterile MHA or MHA + 2%glc medium for bacteria and fungi, respectively. The area on the plate where 99.9% inhibition of microbial growth was observed indicated the lethal concentration. In addition, the quotient MBC(MFC)/MIC could be determined to assess the nature of the activity of the test substance. If MBC(MFC)/MIC was <4, the test substance was bactericidal/fungicidal, whereas if MBC(MFC)/MIC was ≥4, it was bacteriostatic/fungistatic. Amoxicillin (Glentham Life Sciences, USA) and nystatin (Glentham Life Sciences, USA) were used as the controls for this assay.
(§2) The test was performed either on bacteria, comprising: Gram-positive (Staphylococcus aureus ATCC 25923, Staphylococcus aureus ATCC 6538, Staphylococcus aureus ATCC 43300 methicillin-resistant MRSA, Staphylococcus epidermidis ATCC 12228, Micrococcus luteus ATCC 10240, Bacillus subtilis ATCC 6633, Bacillus cereus ATCC 10876) and Gram-negative (Escherichia coli ATCC 25922, Pseudomonas aeruginosa ATCC 27853, Proteus mirabilis ATCC 12453, Klebsiella pneumoniae ATCC 13883) or yeast (Candida parapsilosis ATCC 22019, Candida glabrata ATCC 90030, Candida krusei ATCC 14243, Candida glabrata ATCC 15126, Candida tropicalis ATCC 1369, Candida auris CDC B11903, Candida lusitaniae ATCC 3449) reference strains from the American Type Culture Collection (ATCC) or the Centers for Disease Control and Prevention (CDC).

[2] = tested on: Candida glabrata ATCC 90030; assay: Broth microdilution, C. glabrata ATCC 90030; type: cell-based; conditions: Cg 90030
Protocol: as §1, §2

[3] = tested on: Candida parapsilosis ATCC 22019; assay: Broth microdilution, C. parapsilosis ATCC 22019; type: cell-based; conditions: Cp 22019
Protocol: as §1, §2

[4] = tested on: Candida krusei ATCC 14243; assay: Broth microdilution, C. krusei ATCC 14243; type: cell-based; conditions: Ck 14243
Protocol: as §1, §2

[5] = tested on: Candida tropicalis ATCC 1369; assay: Broth microdilution, C. tropicalis ATCC 1369; type: cell-based; conditions: Ct 1369
Protocol: as §1, §2

[6] = tested on: Staphylococcus epidermidis ATCC 12228; assay: Broth microdilution, S. epidermidis ATCC 12228; type: cell-based; conditions: Se 12228; for MBC/MIC Ratio: <4 bactericidal, ≥4 bacteriostatic
Protocol: as §1, §2

Candida auris CDC B11903 = assay: Broth microdilution, C. auris CDC B11903; type: cell-based; conditions: Ca B11903
Protocol: as §1, §2

[7] = tested on: Bacillus cereus ATCC 10876; assay: Broth microdilution, B. cereus ATCC 10876; type: cell-based; conditions: Bc 10876; for MBC/MIC Ratio: <4 bactericidal, ≥4 bacteriostatic
Protocol: as §1, §2

[8] = tested on: Micrococcus luteus ATCC 10240; assay: Broth microdilution, M. luteus ATCC 10240; type: cell-based; conditions: Ml 10240; for MBC/MIC Ratio: <4 bactericidal, ≥4 bacteriostatic
Protocol: as §1, §2

[9] = tested on: Staphylococcus aureus ATCC 43300 methicillin-resistant MRSA; assay: Broth microdilution, S. aureus ATCC 43300 MRSA; type: cell-based; conditions: Sa 43300 MRSA
Protocol: as §1, §2

[10] = tested on: Candida lusitaniae ATCC 3449; assay: Broth microdilution, C. lusitaniae ATCC 3449; type: cell-based; conditions: Cl 3449
Protocol: as §1, §2

[11] = tested on: Candida glabrata ATCC 15126; assay: Broth microdilution, C. glabrata ATCC 15126; type: cell-based; conditions: Cg 15126
Protocol: as §1, §2

[12] = tested on: Staphylococcus aureus ATCC 25923; assay: Broth microdilution, S. aureus ATCC 25923; type: cell-based; conditions: Sa 25923
Protocol: as §1, §2

[13] = tested on: Staphylococcus aureus ATCC 6538; assay: Broth microdilution, S. aureus ATCC 6538; type: cell-based; conditions: Sa 6538
Protocol: as §1, §2

[14] = Bacillus subtilis, ATCC6633, read-out: MBC
[15] = Bacillus subtilis, ATCC6633, read-out: MIC
[16] = Nakaseomyces glabratus, ATCC90030, read-out: MIC
[17] = Lodderomyces parapsilosis, ATCC22019, read-out: MIC
[18] = Pichia kudriavzevii, ATCC14243, read-out: MIC
[19] = Candida tropicalis, ATCC1369, read-out: MIC
[20] = Staphylococcus epidermidis, ATCC12228, read-out: MBC
[21] = Staphylococcus epidermidis, ATCC12228, read-out: MIC
[22] = Candidozyma auris, CDCB11903, read-out: MIC
[23] = Bacillus cereus, ATCC10876, read-out: MBC
[24] = Bacillus cereus, ATCC10876, read-out: MIC
[25] = Micrococcus luteus, ATCC10240, read-out: MBC
[26] = Micrococcus luteus, ATCC10240, read-out: MIC
[27] = Staphylococcus aureus, read-out: MBC
[28] = Staphylococcus aureus, read-out: MIC
[29] = Clavispora lusitaniae, ATCC3449, read-out: MIC
[30] = Nakaseomyces glabratus, ATCC15126, read-out: MIC
[31] = Staphylococcus aureus, ATCC25923, read-out: MBC
[32] = Staphylococcus aureus, ATCC25923, read-out: MIC
[33] = Staphylococcus aureus, ATCC6538, read-out: MBC
[34] = Staphylococcus aureus, ATCC6538, read-out: MIC

## COc1ccc(NC(=S)NNC(=O)c2nc([N+](=O)[O-])cn2C)cc1 [Compound 11]
[1]
  MBC: 250 mg/L (≈ 714 µM)
  MIC: 250 mg/L (≈ 714 µM)
  MBC/MIC Ratio: 1
[2]
  MIC: >1000 mg/L
[3]
  MFC: >1000 mg/L
  MIC: 250 mg/L (≈ 714 µM)
[4]
  MIC: >1000 mg/L
[5]
  MFC: >1000 mg/L
  MIC: 250 mg/L (≈ 714 µM)
[6]
  MBC: >1000 mg/L
  MIC: 500 mg/L (≈ 1430 µM)
Candida auris CDC B11903
  MIC: >1000 mg/L
[7]
  MBC: 250 mg/L (≈ 714 µM)
  MIC: 250 mg/L (≈ 714 µM)
  MBC/MIC Ratio: 1
[8]
  MBC: 500 mg/L (≈ 1430 µM)
  MIC: 250 mg/L (≈ 714 µM)
  MBC/MIC Ratio: 2
[9]
  MBC: >1000 mg/L
  MIC: 1000 mg/L (≈ 2850 µM)
[10]
  MIC: >1000 mg/L
[11]
  MIC: >1000 mg/L
[12]
  MBC: >1000 mg/L
  MIC: 500 mg/L (≈ 1430 µM)
[13]
  MBC: >1000 mg/L
  MIC: 1000 mg/L (≈ 2850 µM)

## Cc1ccccc1NC(=S)NNC(=O)c1nc([N+](=O)[O-])cn1C [Compound 15]
[1]
  MBC: 1000 mg/L (≈ 2990 µM)
  MIC: 1000 mg/L (≈ 2990 µM)
  MBC/MIC Ratio: 1
[2]
  MIC: >1000 mg/L
[3]
  MIC: >1000 mg/L
[4]
  MIC: >1000 mg/L
[5]
  MFC: >1000 mg/L
  MIC: 500 mg/L (≈ 1500 µM)
[6]
  MBC: 500 mg/L (≈ 1500 µM)
  MIC: 500 mg/L (≈ 1500 µM)
  MBC/MIC Ratio: 1
Candida auris CDC B11903
  MIC: >1000 mg/L
[7]
  MBC: 500 mg/L (≈ 1500 µM)
  MIC: 500 mg/L (≈ 1500 µM)
  MBC/MIC Ratio: 1
[8]
  MBC: 500 mg/L (≈ 1500 µM)
  MIC: 500 mg/L (≈ 1500 µM)
  MBC/MIC Ratio: 1
[9]
  MBC: >1000 mg/L
  MIC: 250 mg/L (≈ 748 µM)
[10]
  MIC: >1000 mg/L
[11]
  MIC: >1000 mg/L
[12]
  MBC: >1000 mg/L
  MIC: 500 mg/L (≈ 1500 µM)
[13]
  MBC: >1000 mg/L
  MIC: 250 mg/L (≈ 748 µM)

## Cc1cccc(NC(=S)NNC(=O)c2nc([N+](=O)[O-])cn2C)c1 [Compound 16, 1-[(1-methyl-4-nitroimidazol-2-yl)carbonyl]-4-(3-methylphenyl)-thiosemicarbazide]
[1]; [14]
  MBC: 500 mg/L (≈ 1500 µM)
[1]; [15]
  MIC: 500 mg/L (≈ 1500 µM)
[1]
  MBC/MIC Ratio: 1
[2]; [16]
  MIC: > 1000 mg/L
[3]; Lodderomyces parapsilosis, ATCC22019, read-out: MFC
  MFC: > 1000 mg/L
[3]; [17]
  MIC: 500 mg/L (≈ 1500 µM)
[4]; [18]
  MIC: > 1000 mg/L
[5]; [19]
  MIC: > 1000 mg/L
[6]
  MBC/MIC Ratio: 1
[6]; [20]
  MBC: 500 mg/L (≈ 1500 µM)
[6]; [21]
  MIC: 500 mg/L (≈ 1500 µM)
Candida auris CDC B11903; [22]
  MIC: > 1000 mg/L
[7]; [23]
  MBC: > 1000 mg/L
[7]; [24]
  MIC: 250 mg/L (≈ 748 µM)
[8]; [25]
  MBC: > 1000 mg/L
[8]; [26]
  MIC: 500 mg/L (≈ 1500 µM)
[9]; [27]
  MBC: > 1000 mg/L
[9]; [28]
  MIC: 125 mg/L (≈ 374 µM)
[10]; [29]
  MIC: > 1000 mg/L
[11]; [30]
  MIC: > 1000 mg/L
[12]; [31]
  MBC: > 1000 mg/L
[12]; [32]
  MIC: 250 mg/L (≈ 748 µM)
[13]; [33]
  MBC: > 1000 mg/L
[13]; [34]
  MIC: 62.5 mg/L (≈ 187 µM)

## Cc1ccc(NC(=S)NNC(=O)c2nc([N+](=O)[O-])cn2C)cc1 [Compound 17, 1-[(1-methyl-4-nitroimidazol-2-yl)carbonyl]-4-(4-methylphenyl)thiosemicarbazide]
[1]; [14]
  MBC: > 1000 mg/L
[1]; [15]
  MIC: 500 mg/L (≈ 1500 µM)
[2]; [16]
  MIC: > 1000 mg/L
[3]; [17]
  MIC: > 1000 mg/L
[4]; [18]
  MIC: > 1000 mg/L
[5]; Candida tropicalis, ATCC1369, read-out: MFC
  MFC: > 1000 mg/L
[5]; [19]
  MIC: 250 mg/L (≈ 748 µM)
[6]; [20]
  MBC: > 1000 mg/L
[6]; [21]
  MIC: 500 mg/L (≈ 1500 µM)
Candida auris CDC B11903; [22]
  MIC: > 1000 mg/L
[7]; [23]
  MBC: > 1000 mg/L
[7]; [24]
  MIC: 62.5 mg/L (≈ 187 µM)
[8]; [25]
  MBC: > 1000 mg/L
[8]; [26]
  MIC: 500 mg/L (≈ 1500 µM)
[9]; [27]
  MBC: > 1000 mg/L
[9]; [28]
  MIC: 125 mg/L (≈ 374 µM)
[10]; [29]
  MIC: > 1000 mg/L
[11]; [30]
  MIC: > 1000 mg/L
[12]; [31]
  MBC: > 1000 mg/L
[12]; [32]
  MIC: 125 mg/L (≈ 374 µM)
[13]; <4 bactericidal, ≥4 bacteriostatic
  MBC/MIC Ratio: 1
[13]; [33]
  MBC: 125 mg/L (≈ 374 µM)
[13]; [34]
  MIC: 125 mg/L (≈ 374 µM)

## Cn1cc([N+](=O)[O-])nc1C(=O)NN=Cc1ccccc1 [Compound 19, 1-methyl-4-nitro-N’-(phenylmethylidene)-1H-imidazole-2-carbohydrazide]
other
  melting point: 280 to 284 °C

## Cn1cc([N+](=O)[O-])nc1C(=O)NN=Cc1ccccc1Cl [Compound 20, N’-[(2-chlorophenyl)methylidene]-1-methyl-4-nitro-1H-imidazole-2-carbohydrazide]
other
  melting point: 234 to 236 °C
